Source: US9340513B2, “Propenoate derivatives of betulin” (GlaxoSmithKline LLC, priority 2011, dated 2016)
pIC50: −log10 of the molar value.

The compounds below were run on HIV-1 (strain IIIB) (assay: MT4 Cell Antiviral Assay). Conditions: Human immunodeficiency virus 1, 120 h; HIV-1 strain IIIB in MT4 cells, 5 days, Cell Titer-Glo; 50% decrease in HIV-induced cytopathic effect.
Assay type: cell-based
Procedure: Antiviral HIV activity and compound-induced cytotoxicity were measured in parallel based on a modified protocol of the propidium iodide based procedure in the human T-cell lymphotropic virus transformed cell line MT4. Aliquots of the test compounds were serially diluted in DMSO plated in 96-well plates. Exponentially growing MT4 cells were harvested and pelleted. Cell pellets were resuspended in fresh medium (RPMI 1640, 10% FCS, and gentamycin. Cell aliquots were infected by the addition of HIV-1 (strain IIIB) diluted to give a viral multiplicity of infection of 300×TCID50/million cells. A similar cell aliquot was diluted with medium to provide a mock-infected control. Cell infection was allowed to proceed for 1 hr at 37° C. in a tissue culture incubator with humidified 5% CO2 atmosphere. After the 1 hr incubation the virus/cell suspensions were diluted with fresh medium, and added to each well of the plate containing pre-diluted compound. Plates were then placed in a tissue culture incubator with humidified 5% CO2 for 5 days. […] The plates were analyzed in an automated plate reader for luminescence.assay. The control and standard used was efavirinz tested over a concentration range of 0.001 to 1 μM in every assay. The expected range of IC50 values for efavirinz is 0.1 to 1 nM.
The antiviral effect of a test compound is reported as an IC50, i.e. the inhibitory concentration that would produce a 50% decrease in the HIV-induced cytopathic effect. This effect is measured by the amount of test compound required to restore 50% of the cell growth of HIV-infected MT4 cells, compared to uninfected MT4 cell controls. IC50 was calculated by RoboSage, Automated Curve Fitting Program.
For each assay plate, the results (of wells containing uninfected cells or infected cells with no compound were averaged, respectively. For measurements of compound-induced cytotoxicty, results from wells containing various compound concentrations and uninfected cells were compared to the average of uninfected cells without compound treatment. Percent of cells remaining is determined by the following formula: Percent of cells remaining=(compound-treated uninfected cells/untreated uninfected cells)×100.
A level of percent of cells remaining of 79% or less indicates a significant level of direct compound-induced cytotoxicity for the compound at that concentration. When this condition occurs the results from the compound-treated infected wells at this concentration are not included in the calculation of IC50.
For measurements of compound antiviral activity, results from wells containing various compound concentrations and infected cells are compared to the average of uninfected and infected cells without compound treatment. Percent inhibition of virus is determined by the following formula: Percent inhibition of virus=(1−((ave. untreated uninfected cells−treated infected cells)/(ave. untreated uninfected cells−ave. untreated infected cells)))×100
`CC(C)C1=C2[C@H]3CC[C@@H]4[C@@]5(C)CC[C@H](OC(=O)CC(C)(C)C(=O)O)C(C)(C)[C@@H]5CC[C@@]4(C)[C@]3(C)CC[C@@]2(/C=C/C(=O)N[C@@H](C)c2ccc(Cl)cn2)CC1=O` [Example 3, 4-(((3aS,5aR,5bR,7aR,9S,11aR,11bR,13aS)-3a-((E)-3-(((S)-1-(5-Chloropyridin-2-yl)ethyl)amino)-3-oxoprop-1-en-1-yl)-1-isopropyl-5a,5b,8,8,11a-pentamethyl-2-oxo-3,3a,4,5,5a,5b,6,7,7a,8,9,10,11,11a,1 b,12,13,13a-octadecahydro-2H-cyclopenta[a]chrysen-9-yl)oxy)-2,2-dimethyl-4-oxobutanoic acid] showed a pIC50 of over 8.00.
In the case of `C/C(=C\[C@@]12CC[C@]3(C)[C@H](CC[C@@H]4[C@@]5(C)CC[C@H](OC(=O)CC(C)(C)C(=O)O)C(C)(C)[C@@H]5CC[C@]43C)C1=C(C(C)C)C(=O)C2)C(=O)NC1(c2ncc(Cl)cn2)CC1` [Example 28, 4-(((3aS,5aR,5bR,7aR,9S,11aR,11bR,13aS)-3a-((E)-3-((1-(5-Chloropyrimidin-2-yl)cyclopropyl)amino)-2-methyl-3-oxoprop-1-en-1-yl)-1-isopropyl-5a,5b,8,8,11a-pentamethyl-2-oxo-3,3a,4,5,5a,5b,6,7,7a,8,9,10,11,11a,11b,12,13,13a-octadecahydro-2H-cyclopenta[a]chrysen-9-yl)oxy)-2,2-dimethyl-4-oxobutanoic acid], the pIC50 was over 8.00.
`C/C(=C\[C@@]12CC[C@]3(C)[C@H](CC[C@@H]4[C@@]5(C)CC[C@H](OC(=O)CC(C)(C)C(=O)O)C(C)(C)[C@@H]5CC[C@]43C)C1=C(C(C)C)C(=O)C2)C(=O)NC1(c2cccc(Cl)c2)CC1` [Example 29, 4-(((3aS,5aR,5bR,7aR,9S,11aR,11bR,13aS)-3a-((E)-3-((1-(3-Chlorophenyl)cyclopropyl)amino)-2-methyl-3-oxoprop-1-en-1-yl)-1-isopropyl-5a,5b,8,8,11a-pentamethyl-2-oxo-3,3a,4,5,5a,5b,6,7,7a,8,9,10,11,11a,11b,12,13,13a-octadecahydro-2H-cyclopenta[a]chrysen-9-yl)oxy)-2,2-dimethyl-4-oxobutanoic acid] showed a pIC50 of 6.60 to 8.00.
For `CC(C)C1=C2[C@H]3CC[C@@H]4[C@@]5(C)CC[C@H](OC(=O)CC(C)(C)C(=O)O)C(C)(C)[C@@H]5CC[C@@]4(C)[C@]3(C)CC[C@@]2(/C=C/C(=O)NCCO)CC1=O` [Example 32, 4-(((3aS,5aR,5bR,7aR,9S,11aR,11bR,13aS)-3a-((E)-3-((2-Hydroxyethyl)amino)-3-oxoprop-1-en-1-yl)-1-isopropyl-5a,5b,8,8,11a-pentamethyl-2-oxo-3,3a,4,5,5a,5b,6,7,7a,8,9,10,11,11a,11b,12,13,13a-octadecahydro-2H-cyclopenta[a]chrysen-9-yl)oxy)-2,2-dimethyl-4-oxobutanoic acid], the pIC50 was 6.60 to 8.00.
Compound `C/C(=C\[C@@]12CC[C@]3(C)[C@H](CC[C@@H]4[C@@]5(C)CC[C@H](OC(=O)CC(C)(C)C(=O)O)C(C)(C)[C@@H]5CC[C@]43C)C1=C(C(C)C)C(=O)C2)C(=O)NC1(c2ccc(Cl)cc2)CC1` [Example 27, 4-(((3aS,5aR,5bR,7aR,9S,11aR,11bR,13aS)-3a-((E)-3-((1-(4-Chlorophenyl)cyclopropyl)amino)-2-methyl-3-oxoprop-1-en-1-yl)-1-isopropyl-5a,5b,8,8,11a-pentamethyl-2-oxo-3,3a,4,5,5a,5b,6,7,7a,8,9,10,11,11a,11b,12,13,13a-octadecahydro-2H-cyclopenta[a]chrysen-9-yl)oxy)-2,2-dimethyl-4-oxobutanoic acid] has a pIC50 of over 8.00.
